In patent publication US6656912B2, “Methods to treat α1-antitrypsin deficiency” (Washington University in St. Louis, priority 2000, dated 2003):
Where a SMILES comes first, the peptide text is derived from it. The star is where a group is joined. Cbz = O=C(OCc1ccccc1)*

Key:
[1] = system: α1-ATZ mutant antitrypsin produced by human fibroblast cell line CJZ12B; experiment: Pulse-chase: disappearance of α1-ATZ from cell lysate and secretion into medium; format: cell-based; details: for effect on amount of secreted α1-ATZ / effect on degradation / intracellular retention of α1-ATZ / molecular weight of intracellular and secreted protein / fraction of α1-ATZ secreted: DMJ 1 mM, KIF 0.3 mM; for effect on amount of secreted α1-ATZ / effect on degradation / intracellular retention of α1-ATZ: DIM 1 mM, vs control; for fraction of α1-ATZ secreted: control 0.11; for disappearance of α1-ATZ from the cell lysate vs control / secretion of the 55 kD α1-ATZ into the medium: glucosidase inhibitors, pulse-chase in presence of drug
Procedure: (§1) The human fibroblast cell line CJZ12B which has been transduced with anthotropic recombinant retroviral particles to result in stable production of α1-ATZ mutant antitrypsin (Gross, V., et al., Biochem. J. (1986) supra) is used to produce α1-ATZ. The α1-ATZ mutant produced is labeled by adding 350-400 μCi TRAN^35S label to the medium.
The procedure of Example 1 was repeated except that after the incubation with label, the cells producing α1-ATZ were “chased” for various time intervals still in the presence of drug. At these time intervals, extracellular fluid and cell lysates were clarified, immunoprecipitated and analyzed by 8-10% SDS PAGE as previously described. (Wu, Y., et al., PNAS (1994) supra).
The pulse-chase experiments of Example 2 were repeated with the mannosidase inhibitors DMJ (1 mM) KIF (0.3 mM) and DIM (1 mM). In the presence of DMJ or KIF, the intracellular and secreted protein both have molecular weights of 52 kD. […] The half-life for disappearance of α1-ATZ from the lysate in the control is 0.95 hours and the fraction secreted is 0.11. […] (Control values were slightly different in this latter experiment.) There was no effect of DIM on degradation or secretion.

neutrophil elastase = experiment: Complex formation of secreted α1-ATZ with neutrophil elastase; format: cell-based; details: medium at 6 hours of chase, KIF (0.3 mM), DMJ (1 nM) or CST (100 μg/ml); for amount of elastase at which complexes start to form / amount of elastase for complete conversion to complexes: 30 minutes at 37°
Procedure: Both HepG2 cells, secreting wild type antitrypsin, and CJZ12B cells, which secrete the mutant, were subjected to pulse-chase conditions as described, for example, in Example 2. The mutant-secreting cells were treated with KIF (0.3 mM) DMJ (1 nM) or CST (100 μg/ml). The extracellular media from the 6 hours time point of the chase period were harvested and then incubated for 30 minutes at 37° with neutrophil elastase at various concentrations. The reaction mixtures were then immunoprecipitated with anti-antitrypsin and resolved by SDS PAGE.

[2] = system: α1-ATZ secreted by CJZ12B cells; experiment: endoH / PNGaseF digestion of α1-ATZ secreted by treated CJZ12B cells; format: cell-based, human; details: product of drug-treated CJZ12B cells
Excerpt: Wild type α1-AT is secreted from HepG2 cells with a molecular weight of 55 kD. It is resistant to digestion with endoH but is cleaved to a 46 kD polypeptide by PNGaseF.
EndoH is glycolytic only for high mannose […] carbohydrate glycosylation chains; PNGaseF cleaves any carbohydrate and would be expected to degrade the glycosylation side chains of any glycoprotein.
This 55 kD α1-ATZ polypeptide was cleaved to 46 kD by PNGaseF.
The peptide secreted by KIF treated CJZ12B cells was cleaved both by endoH and PNGaseF to a 46 kD product.

[3] = system: α1-ATZ mutant antitrypsin produced by human fibroblast cell line CJZ12B; experiment: Electrophoretic mobility of immunoprecipitated α1-ATZ from drug-treated, 35S-labeled cells (SDS-PAGE); format: cell-based; details: for migration of α1-ATZ compared to the 52 kD trimmed form: mannosidase inhibitors, tested as in Example 1; for migration of precipitated α1-ATZ / estimated molecular weight of the protein from treated cultures: 100 μg/ml CST or 3 mM MDNJ; for migration of precipitated α1-ATZ: 1 hour preincubation, 1.5 hours label, vs control medium; for estimated molecular weight of the protein from treated cultures: untreated form 52 kD
Excerpt: as §1
It has previously been shown that α1-ATZ mutant migrates at 52 kD in electrophoretic studies. It is believed this form is an intermediate with high mannose-type oligosaccharide side chains (Wu, Y., et al., PNAS (1994) supra). The α1-ATZ producing cell line of Preparation A was incubated for 1 hour in control serum-free medium or in serum-free medium supplemented with 100 μg/ml CST or 3 mM MDNJ. The cells were then labeled with TRAN^35S for 1.5 hours maintaining the presence of the drugs. The antitrypsin fraction was immunoprecipitated from the cell lysates, resolved by 10% SDS-PAGE and detected with the Phosphorimager system. […] The estimated molecular weight of the protein from treated cultures is 55 kD.
The effect of the mannosidase inhibitors KIF (mannosidase I), DMJ (mannosidase I and II) and an additional inhibitor, DIM (mannosidase II) on electrophoretic mobility was tested as described in Example 1.

α1-ATZ = experiment: Cell-free ER degradation of α1-ATZ (reticulocyte lysate with canine pancreatic microsomes); format: biochemical
Procedure: This system was described by Qu, D., et al., J. Biol. Chem. (1996) 271:22791-22795 cited above. In general, reticulocyte lysate cell free system supplemented with canine pancreatic microsomes was programmed with purified α1-ATZ mRNA over 60 minutes at 30° C. The microsomes were then isolated by centrifugation and incubated in a proteolysis-primed lysate at 37° for various time intervals. Aliquots were taken and the samples resolved on 10% SDS-PAGE gels.
To test the effect of drug, the reaction mixture was pre-incubated for 10 minutes at 30° C. in the absence of CST or in the presence of 100 μg/ml CST. α1-ATZ mRNA and ^35S-labeled methionine were added and translation conducted for 60 minutes at 30° C. in the absence or presence of CST. After co-translational translocation of α1-ATZ into the microsomes, the microsomes were harvested by centrifugation and the pellets suspended in […] of proteolysis-primed lysate with or without CST. The samples were incubated at 37° C. and aliquots analyzed at various time intervals.

[4] = system: α1-ATZ complexes with calnexin and GRP78/BiP; experiment: Co-immunoprecipitation of α1-ATZ with chaperones from microsomes; format: biochemical
Procedure: The procedure was repeated with 100 μg/ml CST present throughout and the microsomes were homogenized under nondenaturing conditions and immunoprecipitated with antibodies to calnexin and to a different chaperone, GRP78/BiP. The 52 kD form in the control was precipitated by anti-calnexin but the complex disappears between 30-45 minutes of the chase period. […] On the other hand, the 55 kD protein characteristic of the sample which includes CST is precipitated by anti-GRP78/BiP. This complex, too, disappears rapidly.

[5] = 100 μg/ml CST present throughout

OC[C@@H](O)[C@@H]1NC[C@@H](O)[C@H]1O [DIM]
effect on amount of secreted α1-ATZ [1]: no effect | effect on degradation / intracellular retention of α1-ATZ [1]: no effect

O=C1N[C@@H]2[C@@H](O)[C@@H](O)[C@H](O)[C@@H](CO)N2C1=O [KIF, kifunensine]
molecular weight of intracellular and secreted protein [1]: 52 kD | effect on amount of secreted α1-ATZ [1]: increase | effect on degradation / intracellular retention of α1-ATZ [1]: retained intracellularly for a longer period of time | fraction of α1-ATZ secreted [1]: 0.31 | molecular weight of α1-ATZ-elastase complexes (neutrophil elastase): 70 kD | amount of elastase at which complexes start to form (neutrophil elastase): 0.5 µg | amount of elastase for complete conversion to complexes (neutrophil elastase): 2 µg | molecular weight of product after PNGaseF cleavage [2]: 46 kD | molecular weight of product(s) after endoH treatment [2]: 46 kD | sensitivity of secreted α1-ATZ to endoH [2]: cleaved | migration of α1-ATZ compared to the 52 kD trimmed form [3]: somewhat slower migration

CC(C)C[C@@H](C=O)NC(=O)[C@H](CC(C)C)NC(=O)[C@H](CC(C)C)NC(=O)OCc1ccccc1 [MG132] (Cbz-Leu-Leu-Leu-aldehyde)
effect on alternate degradation pathway of untrimmed α1-ATZ (α1-ATZ; CST present): inhibited

O[C@H]1[C@H](O)[C@@H](O)CN2CC[C@H](O)[C@H]12 [CST, castanospermine]
newly synthesized 55 kD protein secreted into the medium ([1]; 100 μg/ml CST, by 6 hours of chase, untreated control 17%): 31% | time at which 55 kD protein disappears from the cell lysate ([1]; 100 μg/ml CST, chase): 2 to 4 h | disappearance of α1-ATZ from the cell lysate vs control [1]: same rate | secretion of the 55 kD α1-ATZ into the medium [1]: increase | time at which the 55 kD form begins to disappear (α1-ATZ; 100 μg/ml CST from pre-incubation on, 37° C., control 15-30 minutes): > 30 min | time at which disappearance is complete (α1-ATZ; 100 μg/ml CST from pre-incubation on, 37° C., control 30-45 minutes): 45 to 90 min | disappearance rate of the 52 kD form (α1-ATZ; CST added only during the chase period): same disappearance rate as the control | molecular weight of α1-ATZ-elastase complexes (neutrophil elastase): 75 kD | amount of elastase at which complexes start to form (neutrophil elastase): 0.5 µg | amount of elastase for complete conversion to complexes (neutrophil elastase): 2 µg | molecular weight of product after PNGaseF cleavage [2]: 46 kD | molecular weight of product(s) after endoH treatment [2]: 46 kD, 48 kD, and 52 kD | sensitivity of secreted α1-ATZ to endoH [2]: partial sensitivity | migration of precipitated α1-ATZ [3]: migrates more slowly | estimated molecular weight of the protein from treated cultures [3]: 55 kD | precipitation of 55 kD α1-ATZ by anti-GRP78/BiP [4, 5]: precipitated | precipitation of α1-ATZ by anti-calnexin [4, 5]: Little if any precipitate | total α1-ATZ co-precipitated with the anti-GRP78/BiP antibody ([4]; CST present, estimated): 5-10%

CN1C[C@H](O)[C@@H](O)[C@H](O)[C@H]1CO [MDNJ, N-methyldeoxynojirimycin]
disappearance of α1-ATZ from the cell lysate vs control [1]: accelerated over control | secretion of the 55 kD α1-ATZ into the medium [1]: no secretion | migration of precipitated α1-ATZ [3]: migrates more slowly | estimated molecular weight of the protein from treated cultures [3]: 55 kD

OC[C@H]1NC[C@@H](O)[C@@H](O)[C@@H]1O [DMJ, deoxymannojirimycin]
molecular weight of intracellular and secreted protein [1]: 52 kD | effect on amount of secreted α1-ATZ [1]: increase | effect on degradation / intracellular retention of α1-ATZ [1]: retained intracellularly for a longer period of time | fraction of α1-ATZ secreted [1]: 0.28 | molecular weight of α1-ATZ-elastase complexes (neutrophil elastase): 70 kD | amount of elastase at which complexes start to form (neutrophil elastase): 0.5 µg | amount of elastase for complete conversion to complexes (neutrophil elastase): 2 µg | migration of α1-ATZ compared to the 52 kD trimmed form [3]: somewhat slower migration
